Results on 14 molecules are retold here after patent US20050214285A1, “Epitopes or mimotopes derived from the C-epsilon-3 or C-epsilon-4 domains of IgE, antagonists thereof, and their therapeutic uses” (SmithKline Beecham Biologicals, s.a. and Peptide …, priority 1999, published 2005).

Positions of bridges follow the written chain, without caps; N, C: chain ends. Residues, ends and D or L forms follow the SMILES beside them. No end group written: not given here.

The target in assay [1] is PTmAb0005. The assay can be described thus: BIAcore affinity to PTmAb0005. It counts as binding. The note with it: read-out: PTmAb BIAcore KD^Rel (μM) PTmAb0005. An excerpt:
(§1) This involved a DNA sub-cloning transfer from the major coat protein (gVIIIp) filamentous phage display vector to a lower copy number minor phage coat protein (gIIIp) display vector with a random PCR step. […] Included in the tables are ranking orders and also BIAcore affinities where available.
(§2) Thus indicating the importance of correct presentation of the peptides of the present invention to adopt a shape which closely resembles the native target in the context of the whole IgE molecule. [drawing]
(In general: SPR reads the build-up and loss of mass on a sensor chip optically.)

The target in assay [2] is PTmAb0011. Kind of assay: BIAcore affinity to PTmAb0011. The conditions noted are these: read-out: PTmAb BIAcore KD^Rel (μM) PTmAb0011. It counts as binding, mouse.
Excerpt: as §1, §2

Assay [3] deals with PTmAb0011. The assay can be described thus: Phage display ranking of peptide ligands for PTmAb0011. It counts as binding, mouse. The note with it: primary phage display biopannings (Table 7).
Excerpt: (§3) Phage display libraries were used to map the binding sites of the monoclonal antibodies using three different phage libraries, displaying either the XCX15, XCX10 or XAX10 peptide sequence (where X is any amino acid) at the N-terminus of the phage gVIIIp. Tables 6 and 7 show the results of selecting for peptide ligands with the anti human IgE monoclonal antibodies […]. […]
as §1

Assay [4] has as its system PTmAb0005. Kind of assay: Phage display ranking of peptide ligands for PTmAb0005. It counts as binding. The conditions noted are these: for Rank (ECL) PTmAb0005: primary phage display biopannings (Table 6). Here is the method: as §3
This was performed by introducing random mutations by PCR mutagenesis and sub-cloning into the Fuse 5 vector for minor filamentous phage protein gIIIp display. These, and other results, confirmed the importance of the amino acids within IgEC67 which aligned with the Cε2 epitope. […] Mutations in other sites had little effect on the affinity to PTmAb0005.
as §1

`CC[C@H](C)[C@H](NC(=O)[C@@H]1CSSC[C@H](NC(=O)[C@@H](N)CCCNC(=N)N)C(=O)N[C@@H](CCC(=O)O)C(=O)N[C@@H](CCC(=O)O)C(=O)N[C@@H](Cc2c[nH]c3ccccc23)C(=O)N[C@@H](CC(C)C)C(=O)N1)C(=O)N1CCC[C@H]1C(=O)N1CCC[C@H]1C(=O)N[C@@H](C)C(=O)N1CCC[C@H]1C(=O)N[C@@H](C)C(=O)N[C@@H](Cc1ccccc1)C(=O)N[C@@H](C)C(=O)N1CCC[C@H]1C(=O)N1CCC[C@H]1C(=O)O` [EEC21/19] (H-RCEEWLCIPPAPAFAPP-OH; disulfide 2-7): the values for the Kd in assay [1] and in assay [2] were 14.9 µM and 27.8 µM, respectively. Further, the “Rank (ECL) PTmAb0011” value in assay [3] is 3.

Turning to `CC[C@H](C)[C@@H]1NC(=O)[C@H](CCSC)NC(=O)[C@H](CCC(=O)O)NC(=O)[C@H](CO)NC(=O)CNC(=O)CNC(=O)[C@H](CC(C)C)NC(=O)[C@H](Cc2c[nH]c3ccccc23)NC(=O)[C@H](C(C)C)NC(=O)[C@H](CCC(=O)O)NC(=O)[C@H](CCCNC(=N)N)NC(=O)[C@@H](NC(=O)[C@@H](N)CO)CSSC[C@@H](C(=O)N[C@@H](CCC(=O)O)C(=O)O)NC(=O)[C@H](CC(=O)O)NC(=O)[C@H](CCSC)NC1=O` [EEC39/50/129] (H-SCREVWLGGSEMIMDCE-OH; disulfide 2-16), the Kd in assay [1] was greater than 1000 µM; in assay [2] it was 2.4 µM. Moreover, the “Rank (ECL) PTmAb0011” value in assay [3] is on record as 1611.

With `CC(C)C[C@@H]1NC(=O)[C@H](CC(=O)O)NC(=O)CNC(=O)[C@H](CCC(=O)O)NC(=O)[C@H](CCCNC(=N)N)NC(=O)[C@@H]2CCCN2C(=O)[C@H](Cc2ccccc2)NC(=O)[C@H](C)NC(=O)[C@@H]2CCCN2C(=O)[C@@H](NC(=O)[C@@H](N)CO)CSSC[C@@H](C(=O)N[C@@H](C)C(=O)N2CCC[C@H]2C(=O)N2CCC[C@H]2C(=O)N[C@H](C(=O)N[C@H](C(=O)O)C(C)C)[C@@H](C)O)NC1=O` [EEC131] (H-SCPAFPREGDLCAPPTV-OH; disulfide 2-12), the Kd is greater than 1000 µM in assay [1] and 42 µM in assay [2]. Further, in assay [3], the “Rank (ECL) PTmAb0011” value turned out to be 910.

Regarding `CSCC[C@H](NC(=O)[C@@H](NC(=O)[C@H](Cc1ccccc1)NC(=O)[C@H](CCC(N)=O)NC(=O)[C@H](CCCNC(=N)N)NC(=O)[C@H](CS)NC(=O)[C@@H](N)CCC(N)=O)C(C)C)C(=O)N[C@@H](CC(N)=O)C(=O)N[C@@H](CCC(N)=O)C(=O)N[C@@H](CO)C(=O)N[C@@H](CCC(=O)O)C(=O)N[C@@H](CCCCN)C(=O)N[C@@H](CCC(=O)O)C(=O)N[C@@H](Cc1ccccc1)C(=O)NCC(=O)N[C@@H](CCC(N)=O)C(=O)N[C@@H](CS)C(=O)O` [IgEC56] (H-QCRQFVMNQSEKEFGQC-OH), the results for the Kd in assay [1] and in assay [2] were 60 µM and greater than 1000 µM, respectively. Besides, the “Rank (ECL) PTmAb0005” value in assay [4] is listed as 0.

Regarding `CC[C@H](C)[C@H](NC(=O)[C@@H]1CCCN1C(=O)[C@H](CC(C)C)NC(=O)CNC(=O)[C@H](CCCNC(=N)N)NC(=O)[C@H](CC(N)=O)NC(=O)[C@@H]1CCCN1C(=O)[C@H](CC(=O)O)NC(=O)[C@H](C)NC(=O)[C@@H]1CCCN1C(=O)[C@H](CO)NC(=O)[C@H](CC(=O)O)NC(=O)[C@H](CO)NC(=O)[C@H](CCSC)NC(=O)[C@H](CS)NC(=O)[C@@H](N)CS)C(=O)N[C@@H](Cc1c[nH]c2ccccc12)C(=O)O` [IgEC66] (H-CCMSDSPADPNRGLPIW-OH), the Kd in assay [1] and in assay [2] was greater than 600 µM throughout. Besides, the “Rank (ECL) PTmAb0005” value in assay [4] stood at 0.

For `CSCC[C@@H]1NC(=O)[C@H](Cc2ccccc2)NC(=O)[C@@H](N)CSSC[C@@H](C(=O)N2CCC[C@H]2C(=O)N[C@@H](CCCNC(=N)N)C(=O)N[C@@H](CCC(=O)O)C(=O)O)NC(=O)[C@H](CC(C)C)NC(=O)[C@H](CCC(=O)O)NC(=O)[C@H](CC(C)C)NC(=O)[C@H](CC(=O)O)NC(=O)[C@H](C)NC(=O)[C@H](CC(C)C)NC(=O)[C@H](CCC(N)=O)NC(=O)[C@H](CCCCN)NC(=O)[C@H](CC(N)=O)NC1=O` [IgEC67] (H-CFMNKQLADLELCPRE-OH; disulfide 1-13), the Kd amounted to 0.1 µM in assay [1] and 4.8 µM in assay [2]. Besides, in assay [4] (IgEC67 and its mutants, gIIIp display), the “binding / affinity to PTmAb0005” value is on record as “highest affinity”. The “Rank (ECL) PTmAb0005” value in assay [4] was 243.

For the molecule `CC(C)[C@H](NC(=O)[C@H](CC(=O)O)NC(=O)[C@H](CO)NC(=O)[C@@H]1CSSC[C@H](NC(=O)[C@@H](N)CO)C(=O)N[C@@H](C)C(=O)N[C@@H](Cc2ccc(O)cc2)C(=O)N[C@@H]([C@@H](C)O)C(=O)N[C@@H](C)C(=O)N[C@@H](CCC(N)=O)C(=O)N[C@@H](CCCNC(=N)N)C(=O)N[C@@H](CCC(N)=O)C(=O)N1)C(=O)N1CCC[C@H]1C(=O)N[C@@H](CC(N)=O)C(=O)N1CCC[C@H]1C(=O)NCC(=O)O` [IgEC69] (H-SCAYTAQRQCSDVPNPG-OH; disulfide 2-10), the Kd in assay [1] came to 6.6 µM; in assay [2] it was 6.4 µM. Moreover, the “Rank (ECL) PTmAb0005” value in assay [4] was found to be 11.

Regarding `CC[C@H](C)[C@H](NC(=O)CNC(=O)[C@@H]1CCCN1C(=O)[C@H](CCC(N)=O)NC(=O)[C@H](Cc1c[nH]cn1)NC(=O)[C@@H]1CCCN1C(=O)[C@@H](NC(=O)[C@H](CC(=O)O)NC(=O)[C@H](CO)NC(=O)[C@H](CCC(N)=O)NC(=O)[C@H](CS)NC(=O)[C@@H](N)CS)C(C)C)C(=O)N[C@@H](CC(N)=O)C(=O)N[C@@H](CC(=O)O)C(=O)N[C@@H](CC(C)C)C(=O)N[C@@H](Cc1c[nH]cn1)C(=O)N[C@H](C(=O)O)C(C)C` [IgEC73] (H-CCQSDVPHQPGINDLHV-OH), the Kd in assay [1] and in assay [2] was greater than 600 µM in each case. In addition, in assay [4], the “Rank (ECL) PTmAb0005” value is 0.

Regarding `CSCC[C@H](NC(=O)[C@H](CC(N)=O)NC(=O)[C@@H](NC(=O)[C@@H](NC(=O)[C@H](CCC(N)=O)NC(=O)[C@@H](NC(=O)[C@H](CC(=O)O)NC(=O)[C@@H](NC(=O)[C@@H](NC(=O)[C@H](CS)NC(=O)[C@@H](N)CS)C(C)C)[C@@H](C)O)C(C)C)[C@@H](C)O)[C@@H](C)O)C(=O)N[C@@H](CC(=O)O)C(=O)N[C@H](C(=O)N1CCC[C@H]1C(=O)N[C@@H](C)C(=O)NCC(=O)N[C@@H](CCC(N)=O)C(=O)O)C(C)C` [IgEC81] (H-CCVTDVQTTNMDVPAGQ-OH), the values for the Kd in assay [1] and in assay [2] were 78 µM and 6.3 µM, respectively. For the same molecule, the “Rank (ECL) PTmAb0005” value in assay [4] amounted to 0.

As to DALDERAWRARA [EEB33], the values for the Kd in assay [1] and in assay [2] were greater than 600 µM and 117 µM, respectively. In addition, the “Rank (ECL) PTmAb0011” value in assay [3] came to 15.

Regarding DCDWINPPDPPHFWKDT [EEC2/23/44/132], the Kd is greater than 600 µM in assay [1] and 7 µM in assay [2]. For the same molecule, the “Rank (ECL) PTmAb0011” value in assay [3] is 33.

Regarding GAMTAGQLSDLP [ESB25], the Kd in assay [1] was 60 µM; in assay [2], greater than 1000 µM. Moreover, the “Rank (ECL) PTmAb0005” value in assay [4] came out at 0.

Regarding KAGEQAMDMELR [ESB8], the Kd was 257 µM in assay [1] and greater than 1000 µM in assay [2]. For the same molecule, in assay [4], the “Rank (ECL) PTmAb0005” value is on record as 0.

Take VAGGQVVDRELK [ESB10/38]: the Kd was 139 µM in assay [1] and greater than 1000 µM in assay [2]. Besides, the “Rank (ECL) PTmAb0005” value in assay [4] is reported as 0.

A word on the Kd: it is the constant that tells how readily two partners part at equilibrium.
